Assay results: patent US20180200275A1, “METHOD AND THE USE TO IMPROVE ORAL ABSORPTION OF NICOTINAMIDE AND NICOTINAMIDE RIBOSIDE” (Better Standing Company Inc., priority 2017, published 2018)

Experiments:
[1] = cited from earlier work
[2] = effects noted by a person (the inventor) after oral consumption; format: in vivo, human; conditions: 50 mg nicotinamide or 125 mg N-Ribosylnicotinamide chloride with water only, one person

NC(=O)c1cccnc1 [nicotinamide, 3-pyridinecarboxamide]
pKa of the pyridine ring nitrogen atom [1]: 4.14
effects of consuming shortly before bed with water only [2]: no discernible effects
